The values that follow come from paper PMC8217813, “Bridging Computational Vaccinology and Vaccine Development Through Systematic Identification, Characterization, and Downselection of Conserved and Variable Circumsporozoite Protein CD4 T Cell Epitopes From Diverse Plasmodium falciparum Strains” (Frontiers in Immunology, 2021).

One test addresses T1, HLA A*0201 (Homo sapiens, UniProt P04439, D140Y/D185E/D98H/E176V/E277Q/G131W/G231S/I119V/I121R/I166T/I218V/L300P/L318F/N151K/N90K/P208A/P217A/Q86G/Q94H/R138H/R169H/T345S).
T1 construct: Pure Protein, LLC (ran the assay)
The test is described as follows: biochemical. The test is classed as binding.

For a further test, the target named is T2, HLA A*0301 (Homo sapiens, UniProt P04439).
T2 construct: Pure Protein, LLC (ran the assay)
Nature of the test: In vitro class I HLA binding competition assay (fluorescence polarization). To be noted: allele A0301; cell-free competition with fluorescently labeled control peptide, fluorescence polarization at 72 hours. On the technique in general: Fluorescence polarisation rises when a labelled molecule tumbles more slowly, as on binding a larger partner.

A further test has as its target T3, HLA B*0702 (Homo sapiens, UniProt P01889).
T3 construct: Pure Protein, LLC (ran the assay)
Nature of the test: biochemical. The test is classed as binding. To be noted: allele B0702; cell-free competition with fluorescently labeled control peptide, fluorescence polarization at 72 hours.

Another test deals with HLA-DRB1*0701 (Homo sapiens, UniProt P01903+P01911, A100R/A102G/A103Q/D57E/D86V/E43K/F76Y/K127E/L162R/M171V/P40G/Q125H/Q99D/R33Q/R42Y/R54Q/S133A/S66F/T210M/V115G/Y107V/Y59L/Y89S). Nature of the test: In vitro class II HLA binding competition assay. To be noted: competition with fluorescent-labeled reference peptide, class II HLA monomers, 24-hours, test peptide 100,000 nM to 100 nM, time-resolved fluorescence; read-out: IC50, DRB1*0701. Here is the method: (§1) EpiVax conducted in vitro quantification of peptide-HLA binding affinity utilizing a competition assay format per the methodology described in ([35]). Briefly, a fluorescent-labeled, high-binding reference peptide and titrating concentrations of test peptide were incubated in a 96-well plate format with limiting concentrations of class II HLA monomers in aqueous buffer for 24-hours. Post incubation, the mixtures were moved to a 96-well plate coated with anti-HLA-DR antibody to capture HLA-peptide complexes. Time-resolved fluorescence measurement of the bound labeled reference peptide complex present in each mixture were detected with a europium-linked probe via fluorescent spectrophotometry using a SpectraMax M5 system. HLA binding affinity of each test peptide was expressed as the percent inhibition of reference peptide binding. Percent inhibition values (across the test peptide titration range) were used to calculate the half maximal inhibitory concentration (IC50) of each test peptide. For these studies, test peptides were assessed using a range of final concentrations from 100,000 nM to 100 nM and all peptides were reconstituted in dimethyl sulfoxide (DMSO).

Another test deals with T4, HLA-DRB1*0101 (Homo sapiens, UniProt P01903+P01911, A100R/D57E/F55L/F60I/F76Y/I96L/L162R/M171V/P40L/Q125E/R42F/V115G/Y59C).
T4 construct: purchased
Nature of the test: In vitro class II HLA binding competition assay. As to conditions: competition with fluorescent-labeled reference peptide, class II HLA monomers, 24-hours, test peptide 100,000 nM to 100 nM, time-resolved fluorescence. How it is done:
as §1

Another test has as its target T5, HLA-DRB1*1501 (Homo sapiens, UniProt P01903+P01911).
T5 construct: purchased
The test is described as follows: In vitro class II HLA binding competition assay. As to conditions: competition with fluorescent-labeled reference peptide, class II HLA monomers, 24-hours, test peptide 100,000 nM to 100 nM, time-resolved fluorescence; read-out: IC50, DRB1*1501. Here is the method:
as §1

Where [1] appears, read: allele A0201, cell-free competition with fluorescently labeled control peptide, fluorescence polarization at 72 hours, read-out: IC50.

Where two headings read alike, the source gives them in different places. Peptide text beside a SMILES is read from it.

`CC(C)C[C@H](N)C(=O)N[C@@H](CO)C(=O)N[C@H](C(=O)N[C@@H](CCC(=O)O)C(=O)N[C@@H](Cc1c[nH]c2ccccc12)C(=O)N[C@@H](CO)C(=O)N1CCC[C@H]1C(=O)N[C@@H](CS)C(=O)N[C@@H](CO)C(=O)N[C@H](C(=O)O)C(C)C)[C@@H](C)O` [327_3D7 (10)] (H-LSTEWSPCSV-OH): on HLA A*0201 (setting [1]), the IC50 turned out to be 4.38 µM.

Take `CC[C@H](C)[C@H](NC(=O)[C@H](CCCCN)NC(=O)[C@H](CC(C)C)NC(=O)[C@@H](N)Cc1ccc(O)cc1)C(=O)N[C@H](C(=O)N[C@@H](CCC(N)=O)C(=O)N[C@@H](CC(N)=O)C(=O)N[C@@H](CO)C(=O)N[C@@H](CC(C)C)C(=O)O)[C@@H](C)CC` [Cluster 319_ICS5] (H-YLKIIQNSL-OH): the IC50 on HLA A*0201 was 4.88 µM. As for `CC[C@H](C)[C@H](NC(=O)[C@H](CO)NC(=O)[C@H](CO)NC(=O)[C@H](CC(N)=O)NC(=O)[C@@H](NC(=O)[C@@H](NC(=O)[C@H](CC(N)=O)NC(=O)[C@H](Cc1ccccc1)NC(=O)[C@@H](NC(=O)[C@@H](N)CO)C(C)C)C(C)C)C(C)C)C(=O)O` [Cluster 376_3D7] (H-SVFNVVNSSI-OH), the IC50 on HLA A*0201 (setting [1]) came out at 342 µM. For the same compound, the “IC50 (nM)” value on HLA A*0301 and on HLA B*0702 was “Non-Binder” each time. As for `CC[C@H](C)[C@H](NC(=O)CNC(=O)[C@H](CC(N)=O)NC(=O)CNC(=O)[C@H](CS)NC(=O)[C@@H](NC(=O)[C@@H](NC(=O)[C@@H](N)CO)C(C)C)[C@@H](C)O)C(=O)N[C@@H](CCC(N)=O)C(=O)N[C@H](C(=O)O)C(C)C` [Cluster 335_3D7] (H-SVTCGNGIQV-OH), on HLA A*0201 (setting [1]), the IC50 was 489 µM. Besides, the “IC50 (nM)” value at HLA B*0702 is on record as “Non-Binder”. In turn, `CC[C@H](C)[C@H](NC(=O)[C@H](CCCCN)NC(=O)[C@H](CCCCN)NC(=O)[C@H](CC(C)C)NC(=O)[C@H](Cc1ccc(O)cc1)NC(=O)[C@H](CCC(=O)O)NC(=O)[C@@H](NC(=O)[C@@H](NC(=O)[C@@H](N)Cc1c[nH]cn1)[C@@H](C)CC)[C@@H](C)O)C(=O)O` [Cluster 315_ICS2] (H-HITEYLKKI-OH) gave an IC50 at HLA A*0201 of 148 µM. With `CC(C)C[C@H](NC(=O)[C@@H](NC(=O)[C@H](CCCNC(=N)N)NC(=O)[C@@H](NC(=O)[C@H](CC(N)=O)NC(=O)[C@H](CO)NC(=O)[C@H](CO)NC(=O)[C@H](CO)NC(=O)CNC(=O)[C@H](Cc1ccc(O)cc1)NC(=O)[C@H](CS)NC(=O)[C@H](CCC(N)=O)NC(=O)[C@H](Cc1ccc(O)cc1)NC(=O)[C@H](CCC(=O)O)NC(=O)[C@H](CCC(N)=O)NC(=O)[C@H](Cc1ccccc1)NC(=O)[C@H](CCCCN)NC(=O)[C@@H](N)CCCCN)[C@@H](C)O)C(C)C)C(=O)N[C@@H](CC(N)=O)C(=O)N[C@@H](CCC(=O)O)C(N)=O` [Cluster C1] (H-KKFQEYQCYGSSSNTRVLNE-NH2), the values for the IC50 on HLA-DRB1*0701, on HLA-DRB1*0101 and at HLA-DRB1*1501 were 36.7 µM, 50.1 µM and 1.77 µM, respectively.

CKMEKCSSV [369_3D7 (9)]: on HLA A*0201 (allele A0201, cell-free competition with fluorescently labeled control peptide, fluorescence polarization at 72 hours), the “IC50 (nM)” value was “Non-Binder”.

One may read the IC50 as the concentration needed to halve the response being measured.
